# Measured values taken from PubChem BioAssay AID1117319 (Southern Research Institute, 2015).
# Records with an inconclusive call do not appear.
# Biological target: Virion infectivity factor (Human immunodeficiency virus type 1 group M subtype B (isolate BH10)) + Virion infectivity factor (Human immunodeficiency virus type 1 group M subtype B (isolate BRU/LAI)) + Virion infectivity factor (Human immunodeficiency virus type 1 group M subtype B (isolate PCV12)) + Virion infectivity factor (Human immunodeficiency virus type 1 group M subtype B (isolate HXB2)) + DNA dC->dU-editing enzyme APOBEC-3G (Homo sapiens) (UniProt P69720+P69721+P69722+P69723+Q9HC16)
# Assay: inhibitors of Vif binding to APOBEC3G peptide, primary screen, biochemical, TR-FRET, GST-Vif 1-94, biotin-A3G peptide, dose response retest (AID 1117319);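 also: Vif residues 1-94 fused to GST binding biotinylated APOBEC3G peptide 110-148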
row,Structure (SMILES),IC50
1,O=C(Cc1ccccc1)NC(Nc1ccccc1)C(Cl)(Cl)Cl (stereo not drawn),27.9 µM
2,O=C(O)Cc1cccc(=O)c(O)c1C(=O)O,8.19 µM
3,Cc1ccc2[nH]c(=O)c(C3C(C#N)=C(N)Oc4c3ccc3cccnc43)cc2c1 (stereo not drawn),24.3 µM
4,CC(C(=O)O)N1C(=O)/C(=C/C=C/c2ccco2)SC1=S (stereo not drawn),0.39 µM
5,CC(C)(C)NC(=O)C(c1ccncc1)N(C(=O)CNC(=O)c1ccco1)c1ccc2c(c1)OCO2 (stereo not drawn),11.3 µM
6,CCc1ccc(NC(=O)CCNS(=O)(=O)c2cccc3nonc23)cc1,53 µM
7,Cc1cc(C(=O)NNC(=O)/C=C/c2ccco2)c(C)o1,13.3 µM
8,COCOC1CCC2C3CCC4=CC(=O)CCC4=C3C=CC12C (stereo not drawn),23.2 µM
9,C=CCn1c(N2CCCCCC2)nc2c1c(=O)[nH]c(=O)n2C,30.1 µM
10,CCOC(=O)COc1nc(-c2ccco2)cc(-c2ccco2)c1C#N,5.83 µM
11,O=C(O)c1cc2cccc(S(=O)(=O)N3CCOCC3)c2cc1O,38 µM
12,O=[N+]([O-])c1ccc(N2CCN(c3ccc(Cl)nn3)CC2)c(Cl)c1,99.1 µM
13,O=C1C=C(c2c(O)ccc3ccccc23)c2ccccc2C1=O,2.54 µM
14,Nc1ccc(N2CCN(CCCCN3C(=O)C4CCCN4C3=O)CC2)cc1 (stereo not drawn),1.34 µM
15,Cc1cc(C(F)(F)F)n2nc(C(=O)O)c(Cl)c2n1,79.9 µM
16,CSc1ccccc1NC(=O)c1noc2c1CCC2,18.4 µM
17,c1cncc(-c2nnc3sc(-c4ccco4)nn23)c1,28.3 µM
18,O=C(N/N=C/c1cccnc1)c1cc(O)c(O)c(O)c1,21.7 µM
19,Cc1ccc(N/N=C/c2c(C)c(C#N)c(=O)n(C)c2O)cc1C,91.3 µM
20,N#Cc1ccccc1CN1C(=O)S/C(=C/c2cccn2-c2ccc(C(=O)O)cc2)C1=O,19.8 µM

row,Structure (SMILES),IC50
1,CC(C)CCNC(=O)Cn1c2c(c(-c3ccccc3Cl)cc1=O)CCC2,19.7 µM
2,Cc1cc(C)cc(Nc2ncc3c(n2)CC(c2ccco2)CC3=O)c1 (stereo not drawn),6.84 µM
3,O=C1CCCC(O)=C1N=Nc1ccc(C(=O)O)cc1,2.72 µM
4,Cc1nc2ccccc2n2c(O)c(CC(=O)O)cc12,30.2 µM
5,N#CC1=C(N)C2=C(N3CCCCC3)CCCC2C1(C#N)C#N (stereo not drawn),1.7 µM
6,c1ccc2c(c1)CCCN2Cc1nnc2n1CCCCC2,31.5 µM
7,Cc1cccc(OCCn2cccc2/C=C2/C(=O)NC(=O)N(Cc3ccco3)C2=O)c1,4.18 µM
8,CCC(=O)NNc1ncnc2ccccc12,16.4 µM
9,CCOC(=O)c1c2c(n(Cc3ccccc3)c1C)C(=O)C(=O)c1ccccc1-2,79.5 µM
10,CCCn1c(CNc2ccccc2O)nc2ccccc21,53 µM
11,O=C(O)c1ccc(Cl)c2c1C1C=CCC1C(c1ccccn1)N2 (stereo not drawn),0.82 µM
12,COc1ccccc1CNC(=O)COC(=O)c1cc(-c2ccco2)nc2ccccc12,9.99 µM
13,Cc1cc(C(C)c2ccccc2)c(O)c(CN2CCOCC2)c1C (stereo not drawn),28.8 µM
14,Oc1ccc(/C=N/N2CCCCC2)c(O)c1O,19.2 µM
15,COC/C=C/C1=CC2=CC(=O)C(C)(OC(=O)c3cnc4ccccc4n3)C(=O)C2=CN1c1ccccc1 (stereo not drawn),2.74 µM
16,O=C(/C=C/c1ccco1)c1cccnc1,14.1 µM
17,CCC(=O)NC1=C(Cl)C(=O)C(NC(=O)CC)=C(Cl)C1=O,22.9 µM
18,COc1ccc2c(c1)c(=O)oc1cc(OCC(=O)N3CCC(C)CC3)ccc12,54.6 µM
19,Oc1ccc(C2Nc3cccc4cccc(c34)N2)c(O)c1,17.5 µM
20,COc1ccc2nc3ccccc3nc2c1N,6 µM

row,Structure (SMILES),IC50
1,FC(F)(F)c1cc(-c2ccco2)nc(NCc2cccnc2)n1,42.3 µM
2,O=C(O)/C=C/C(=O)Nc1cccnc1,62.9 µM
3,Cc1cc(NC(=O)CCNS(=O)(=O)c2cc(Br)cnc2N)ccc1Br,35.2 µM
4,CCOc1cccc(=O)c2c(C)oc(C)c12,6.16 µM
5,Cc1noc(C)c1COc1ccc(C(=O)OCC(=O)N2c3ccccc3NC(=O)C2(C)C)cc1,14.9 µM
6,Cc1ccc(N2C(=O)/C(=C\c3ccco3)SC2=S)cc1,7.72 µM
7,Cc1ccc(NC(=O)c2ccc(Cl)c(N3C(=O)C=CC3=O)c2)cc1,81.2 µM
8,O=C1/C(=C\c2ccco2)NC(=S)N1c1ccccc1,16.4 µM
9,O=C1S/C(=C\C=C\c2ccco2)C(=O)N1c1ccc(O)cc1,0.69 µM
10,O=C(Nc1ccc(F)cc1F)c1noc2c1CCC2,12.8 µM
11,COc1ccc(CCNC(=O)/C=C/c2ccco2)cc1,37 µM
12,CCCOc1ccc(Cc2nn3c(=O)/c(=C/c4ccco4)sc3nc2=O)cc1,1.5 µM
13,Cn1cccc1/C=C1\CCC/C(=C\c2cccn2C)C1=O,3.09 µM
14,COC/C=C/C1=CC2=CC(=O)C(C)(OC(=O)CCC(=O)OC)C(=O)C2=CO1 (stereo not drawn),1.35 µM
15,O=C1c2sc3nc4n(c(=O)c3c2CCC1Br)CCCCC4 (stereo not drawn),0.54 µM
16,CNc1ccc(Br)cc(C(=O)/C=C/c2ccc3c(c2)OCO3)c1=O,21.9 µM
17,O=C1CCCC2=C1C(c1ccco1)Nc1ccc3ccccc3c12 (stereo not drawn),4.21 µM
18,COc1cc(/C=C2/C(=O)c3cccc([N+](=O)[O-])c3C2=O)c(Br)cc1O,32.2 µM
